Laboratory results taken from PMC10988762, “Inhibition of malaria and babesiosis parasites by putative red blood cell targeting small molecules” (Frontiers in Cellular and Infection Microbiology, 2024).
pIC50: −log10 of the molar value. Structures can show the parent of a compound that is named as a salt. Where two headings read alike, the source gives them in different places.

How the values were obtained:
[1] = system: P. falciparum strain 3D7; experiment: Inhibitor susceptibility dose-response assay (SYBR-Green I), P. falciparum 3D7; format: cell-based, Plasmodium falciparum; details: Plasmodium falciparum, read-out: IC50 (S.D.), P. falciparum-3D7
Method: (§1) The P. falciparum strains 3D7 and Dd2 were obtained from the Walter and Eliza Hall Institute (Melbourne, Australia) and the Malaria Research and Reference Reagent Resource, respectively. […] B. divergens parasites were maintained and assayed in mixed stages without synchronization.
(§2) Ring-stage P. falciparum (1%-parasitemia starting, 1%-hematocrit) and asynchronous B.divergens (0.5%-parasitemia starting, 3%-hematocrit) were incubated with plated compounds for 72h, and ring-stage P. knowlesi (1%-parasitemia starting, 1%-hematocrit) for 48h, before lysis and staining with dye. To quantify the species-specificity of the inhibitors, we divided the range of IC50s across the 4 test lines by the average IC50 across the same lines: inhibitors with increased scores show species-specific activity and reduced scores indicate broad-spectrum, pan-species activity.

[2] = system: P. falciparum strain Dd2; experiment: Inhibitor susceptibility dose-response assay (SYBR-Green I), P. falciparum Dd2; format: cell-based, Plasmodium falciparum; details: Plasmodium falciparum, read-out: IC50 (S.D.), P. falciparum-Dd2
Method: as §1, §2

[3] = system: BdC9 line of B. divergens; experiment: Inhibitor susceptibility dose-response assay (SYBR-Green I), B. divergens; format: cell-based, Babesia divergens; details: Babesia divergens, read-out: IC50 (S.D.), B. divergens
Method: as §1, §2

[4] = in vitro; details: human
[5] = system: uninfected RBCs; experiment: Cellular phosphatidylserine exposure assay (annexin V flow cytometry);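 as to all read-outs here: flow cytometry recording 10,000 events per condition, gated on single cells, with the two experiments using blood from separate donors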; details: for PS exposure on RBCs, in words: 5x P. falciparum 3D7-IC50, 24, 48, 72h
[6] = system: P. knowlesi YH1 strain; experiment: microbe, parasite or virus in culture; format: cell-based, Plasmodium knowlesi; details: for pIC50: Plasmodium knowlesi, 48 h, read-out: IC50 (S.D.), P. knowlesi
Method: as §1, §2

[7] = system: RBC; details: read-out: Micromolar IC50 (RBC), PS exposure, cited from earlier work
[8] = system: P. falciparum (3D7); experiment: Assay for inhibition of parasite proliferation via RBC-targeting (transient exposure of RBCs, wash, then infection); format: cell-based, Plasmodium falciparum; details: for antimalarial activity retained after transient exposure of RBCs, relative to continuous exposure to inhibitor: 5x P. falciparum 3D7-IC50, RBC preincubation 4-5 hours then washed, 100% = inhibition with continuous exposure, P<0.01; for inhibitory activity following transient exposure of RBCs, in words: transient vs continued exposure, dose-response format where stated, n=3
Method: All plates were frozen for storage before assay. For assay, duplicate plates were preincubated with donor O+ RBCs at 2% hematocrit at 37°C in 50µL for 4-5 hours. Following preincubation, one but not the other plate in each pair was washed 4X in complete RPMI to dilute inhibitor. We transferred RBCs from both washed and unwashed plates to black, clear bottom 96-well plates (Corning Cat. No. 3904) and supplemented these suspensions with MACS-purified P. falciparum (3D7) schizonts for a starting parasitemia of 0.1% - 0.25% at 1% hematocrit. Following 72h incubation in standard culture conditions, samples were processed for SYBR-Green I signal ([Mandt et al., 2019]). […] To identify host-targeting compounds, we compared DMSO-treated to inhibitor-treated samples (Students t-test, paired). We carried out the assay with 1 µM mefloquine (Sigma-Aldrich Cat. No. M2319) as a control for reversible inhibition. All assays were conducted in biological triplicate, with each experiment utilizing different donor RBCs. For select compounds, we carried out this same assay in a dose-response series (n=3 experiments). Following normalization to DMSO-controls, we assessed inhibitor activity following transient exposure of RBCs by Two-Way ANOVA tests for repeated measures (Graphpad Prism v9): high P values indicate support for the null hypothesis that dose-dependent inhibition is not modulated by dilution after exposure, consistent with a direct inhibitory effect of the compounds on RBCs persisting after transient exposure.

[9] = system: P. falciparum 3D7; experiment: Co-administration with established antimalarials, IC50 shift; format: cell-based, Plasmodium falciparum; details: P<0.05
From the text: Our experimental compound set is weighted toward kinase inhibitors, reflecting the high degree of small molecule development in this target space.

[10] = system: uninfected RBCs; details: 5x P. falciparum 3D7-IC50; 24, 48, 72h
[11] = 48h, 5x P. falciparum 3D7-IC50, % of RBCs, mean of 2 experiments
[12] = uninfected RBCs (red blood cells), 1% hematocrit
[13] = 24h, 5x P. falciparum 3D7-IC50, % of RBCs, mean of 2 experiments
[14] = 72h, 5x P. falciparum 3D7-IC50, % of RBCs, mean of 2 experiments
[15] = 3D7, 72h, ring-stage, n=3 experiments (or 2 where indicated with *)
[16] = DD2, 72h, ring-stage, n=3 experiments (or 2 where indicated with *)
[17] = 72h, asynchronous, n=3 experiments (or 2 where indicated with *)

SMILES	pIC50 ([1]; 3D7, 72 h)	pIC50 ([2]; DD2, 72 h)	pIC50 ([3]; 72 h)	Phosphatidylserine exposure (%) 48h [5, 11]	pIC50 [6]	hemolysis at 24 h, 5 x P. falciparum 3D7-IC50 [4, 12]	hemolysis at 48 h, 5 x P. falciparum 3D7-IC50 [4, 12]	hemolysis at 72 h, 5 x P. falciparum 3D7-IC50 [4, 12]	Phosphatidylserine exposure (%) 24h [5, 13]	Phosphatidylserine exposure (%) 72h [5, 14]	further results
CC(C)CC(O)(CC(C)C)c1cnn(C(=O)N2CCCC2)n1 [AA74-1]	6.60	6.30	5.40	2%	–	–	–	–	–	–	hemolysis at 24 h, 5 x P. falciparum 3D7-IC50 [4]: -6%; hemolysis at 48 h, 5 x P. falciparum 3D7-IC50 [4]: -1%; hemolysis at 72 h, 5 x P. falciparum 3D7-IC50 [4]: 2%; Phosphatidylserine exposure (%) 24h [5]: 1%; Phosphatidylserine exposure (%) 72h [5]: 5%
COC[C@H]1Cn2cc(-c3nc(Nc4ccnn4C)ncc3C)nc2C(=O)N1Cc1ccc(F)c(F)c1 [AZD0364]	4.80	4.89	4.80	–	–	–	–	–	–	–	–
O=C(O)C1=CC(=C(c2ccc(O)c(C(=O)O)c2)c2ccc(O)c(C(=O)O)c2)C=CC1=O [Aurintricarboxylic acid (ATA), Aurintricarboxylic acid]	4.43	4.36	4.54	–	–	–	–	–	–	–	–
Nc1ccc(C2CCN(C(=O)c3ccc(Oc4ccc(C(F)(F)F)cc4)cc3)CC2)nn1 [BI 749327]	4.60	4.66	4.52	–	4.40	–	–	–	–	–	–
Clc1ccc(C(c2ccc(Cl)cc2)n2cc[n+](CC(OCc3ccc(Cl)cc3Cl)c3ccc(Cl)cc3Cl)c2)cc1 (stereo not drawn) [Calmidazolium]	6.30	6.22	5.92	4%	6.22	-6%	7%	14%	3%	9%	–
CCCCCCCCc1ccc(CCC(N)(CO)CO)cc1 [FTY720]	5.41	5.46	4.85	21%	5.66	4%	23%	25%	4%	34%	pIC50 ([7]; RBC assay: PS exposure ref PMID 21063113): 5.00 to 5.30
O=C1Nc2ccc(I)cc2/C1=C/c1cc(Br)c(O)c(Br)c1 [GW5074]	4.72	4.89	4.52	–	5.00	–	–	–	–	–	–
Oc1ccc2ccccc2c1SSc1c(O)ccc2ccccc12 [IPA-3]	5.30	5.30	4.82	35%	5.40	-14%	11%	30%	29%	35%	antimalarial activity retained after transient exposure of RBCs, relative to continuous exposure to inhibitor [8]: ≥ 80%; inhibitory activity following transient exposure of RBCs, in words [8]: statistically indistinguishable from inhibition with continued exposure; pIC50 ([7]; RBC assay: PS exposure ref PMID 21214270): > 5.30
Cc1ccc(NC(=O)c2ccc(CN3CCN(C)CC3)cc2)cc1Nc1nccc(-c2cccnc2)n1 [Imatinib mesylate]	–	–	–	2%	–	-2%	2%	7%	2%	–	Phosphatidylserine exposure (%) 72h [5]: 4%
Cn1nccc1Nc1nccc(-c2cc3c(s2)C(C)(C)N(CCN2CCOCC2)C3=O)n1 [LY3214996]	5.28	5.24	5.00	2%	5.22	-1%	13%	16%	2%	5%	–
CCn1c2ccccc2c2cc(-n3nncc3-c3ccccc3)ccc21 [MBQ-167]	4.48	4.64	4.40	–	4.42	–	–	–	–	–	–
CN(C)C[C@@H]1CCn2cc(c3ccccc32)C2=C(C(=O)NC2=O)c2cn(c3ccccc23)CCO1 [Ruboxistaurin]	–	–	–	2%	5.52	-1%	6%	14%	2%	6%	pIC50 [1, 15]: 6.05; pIC50 [2, 16]: 6.05; pIC50 [3, 17]: 5.55; reduction in the IC50 of chloroquine in combination with fixed, sublethal dose of test compound [9]: ≤ 2 fold; PS exposure on RBCs, in words [5]: similarly low levels
CNC(=O)c1cc(Oc2ccc(NC(=O)Nc3ccc(Cl)c(C(F)(F)F)c3)cc2)ccn1 [Sorafenib]	–	–	–	–	5.30	–	–	–	–	–	pIC50 [1, 15]: 5.31; pIC50 [2, 16]: 5.40; pIC50 [3, 17]: 5.70; pIC50 ([7]; RBC assay: PS exposure ref PMID 22907570): < 5.00; hemolysis at 24 h, 5 x P. falciparum 3D7-IC50 [4]: -6%; hemolysis at 48 h, 5 x P. falciparum 3D7-IC50 [4]: 16%; hemolysis at 72 h, 5 x P. falciparum 3D7-IC50 [4]: 15%; Phosphatidylserine exposure (%) 24h [5]: 7%; Phosphatidylserine exposure (%) 48h [5]: 12%; Phosphatidylserine exposure (%) 72h [5]: 21%
Nc1nc(N)c2nc(-c3cccc(O)c3)c(-c3cccc(O)c3)nc2n1 [TG-100-115]	–	–	–	3%	6.10	-1%	12%	18%	2%	5%	pIC50 [1, 15]: 5.05; pIC50 [2, 16]: 5.15; antiparasitic activity in vitro, in words, P. knowlesi ([6]; P. knowlesi): submicromolar activity; activity against P. knowlesi stronger than against the other parasite species ([6]; P. knowlesi vs other parasite species): ~ 10 x; pIC50 [3, 17]: 4.89; PS exposure on RBCs, in words [5]: similarly low levels
O=C(O)/C=C/c1cc(Br)c(Br)c(Br)c1Br [Tetrabromocinnamic acid]	< 4.00	< 4.07	< 4.10	–	< 4.10	–	–	–	–	–	–
COc1ccc2c(c1)CCC1C2CCC2(C)C(NCCCCCCN3C(=O)C=CC3=O)CCC12 (stereo not drawn) [U-73122]	–	–	–	9%	5.36	-3%	16%	13%	5%	11%	pIC50 [1, 15]: 5.40; pIC50 [2, 16]: 5.30; pIC50 [3, 17]: 4.70; antimalarial activity retained after transient exposure of RBCs, relative to continuous exposure to inhibitor [8]: ≥ 80%; inhibitory activity following transient exposure of RBCs, in words [8]: statistically indistinguishable from inhibition with continued exposure; hemolysis of RBCs, in words [10]: lower levels; PS exposure on RBCs, in words [5]: lower levels
OC(c1cc(C(F)(F)F)nc2c(C(F)(F)F)cccc12)C1CCCCN1 (stereo not drawn) [mefloquine]	–	–	–	–	–	–	–	–	–	–	inhibitory activity following transient exposure of RBCs, in words [8]: does not retain antimalarial activity at any dose
